The values below come from patent US20260042753A1 (Merck Patent GmbH, priority 2019, published 2026).

The target in experiment [1] is mutant cKIT (560-576 and V654A) in GIST430/654 cell line (Homo sapiens (Human), UniProt P10721, DEL560-576/V654A). Put plainly: Cellular testing of cKIT mutant inhibitors: phospho-Y307-cKIT Luminex assay in GIST430/654 cells. The format is cell-based. The settings on record: Table 1; cKIT autophosphorylation, compounds 45 min; read-out: GIST 430/654 IC50. In short, it runs like this:
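Autophosphorylation of mutant cKIT at Y307 was quantified by a Luminex bead sandwich assay (total-cKIT capture, phosphospecific detection) after 45 min compound exposure in GIST430/654 cells, cultured in medium containing 100 nM imatinib. Signals were normalised to solvent (0.3% DMSO) controls and dose-response curves fitted for IC50.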

The target in another experiment is c-Kit(V654A) (Homo sapiens, UniProt P10721, V654A). The experiment is described as follows: c-Kit(V654A) assay. In kind it is biochemical. Particulars: Table 1; 200 μM ATP. In short, it runs like this: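 Radiometric filter-binding read-out: after 3% phosphoric acid stop, peptide-incorporated 33P on filtermat scintillation-counted. Enzyme: human c-Kit V654A, residues 544–end, N-terminal GST fusion.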

Chain of mutant cKIT (560-576 and V654A) in GIST430/654 cell line (P10721 other isoform, or with tags, fused parts or gaps V654A/del 1-25/del 560-576 limits assumed): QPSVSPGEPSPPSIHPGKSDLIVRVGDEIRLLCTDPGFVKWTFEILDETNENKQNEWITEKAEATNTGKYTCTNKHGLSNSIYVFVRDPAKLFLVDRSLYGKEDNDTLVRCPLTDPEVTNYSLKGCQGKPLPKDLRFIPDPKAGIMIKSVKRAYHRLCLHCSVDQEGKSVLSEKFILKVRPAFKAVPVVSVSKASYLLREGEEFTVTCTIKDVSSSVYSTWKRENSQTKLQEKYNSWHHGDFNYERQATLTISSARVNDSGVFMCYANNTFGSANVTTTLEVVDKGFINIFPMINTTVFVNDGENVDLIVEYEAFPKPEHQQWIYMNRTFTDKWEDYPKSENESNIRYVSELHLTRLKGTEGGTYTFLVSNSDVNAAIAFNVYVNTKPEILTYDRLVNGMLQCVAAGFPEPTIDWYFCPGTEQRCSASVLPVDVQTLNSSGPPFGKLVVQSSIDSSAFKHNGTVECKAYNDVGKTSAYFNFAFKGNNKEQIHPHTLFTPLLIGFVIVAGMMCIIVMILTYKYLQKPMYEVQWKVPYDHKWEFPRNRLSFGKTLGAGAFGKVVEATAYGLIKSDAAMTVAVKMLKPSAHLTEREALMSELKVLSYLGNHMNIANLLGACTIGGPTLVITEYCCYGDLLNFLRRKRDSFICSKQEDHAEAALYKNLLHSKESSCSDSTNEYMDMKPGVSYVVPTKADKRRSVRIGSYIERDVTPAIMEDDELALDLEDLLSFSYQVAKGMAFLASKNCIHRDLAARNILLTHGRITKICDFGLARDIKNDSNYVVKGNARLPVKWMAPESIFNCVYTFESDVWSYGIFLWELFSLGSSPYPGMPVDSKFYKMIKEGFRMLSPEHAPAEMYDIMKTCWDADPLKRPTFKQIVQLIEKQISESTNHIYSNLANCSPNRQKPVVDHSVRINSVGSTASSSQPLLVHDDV

`COCCOc1cc2[nH]nc(-c3cc(-c4nc(C(=O)N5CC(N6CCOCC6)C5)cs4)no3)c2cc1F` [A84, 5-fluoro-6-(2-methoxyethoxy)-3-(3-{4-[3-(morpholin-4-yl)azetidine-1-carbonyl]-1,3-thiazol-2-yl}-1,2-oxazol-5-yl)-1H-indazole]: the IC50 in experiment [1] was found to be 1800 nM; against c-Kit(V654A) it was 35 nM.
For `COCCOc1cc2[nH]nc(-c3cc(-c4ccc(C(=O)N5CC(n6ccnc6)C5)cc4)no3)c2cc1F` [A85, 5-fluoro-3-(3-{4-[3-(1H-imidazol-1-yl)azetidine-1-carbonyl]phenyl}-1,2-oxazol-5-yl)-6-(2-methoxyethoxy)-1H-indazole], in that order: 130 nM and 0.63 nM.
Consider `COCCOc1cc2[nH]nc(-c3cc(-c4nc(C(=O)N5CC(F)C5)cs4)no3)c2cc1F` [A87, 5-fluoro-3-{3-[4-(3-fluoroazetidine-1-carbonyl)-1,3-thiazol-2-yl]-1,2-oxazol-5-yl}-6-(2-methoxyethoxy)-1H-indazole], for which the values for the IC50 (in experiment [1]; on c-Kit(V654A)) were 590 nM and 38 nM, respectively.
Turning to `COCCOc1cc2[nH]nc(-c3cc(-c4ccc(C(=O)N5CC6(CN(C)C6)C5)cc4)no3)c2cc1F` [A88, 5-fluoro-6-(2-methoxyethoxy)-3-[3-(4-{6-methyl-2,6-diazaspiro[3.3]heptane-2-carbonyl}phenyl)-1,2-oxazol-5-yl]-1H-indazole], the values for the IC50 (in experiment [1]; at c-Kit(V654A)) were 170 nM and 2.3 nM, respectively.
In the case of `COCCOc1cc2[nH]nc(-c3cc(-c4ccc(C(=O)N5CCC[C@H]5CNS(C)(=O)=O)cc4)no3)c2cc1F` [A90, N-{[(2S)-1-(4-{5-[5-fluoro-6-(2-methoxyethoxy)-1H-indazol-3-yl]-1,2-oxazol-3-yl}benzoyl)pyrrolidin-2-yl]methyl}methanesulfonamide], the results for the IC50 (in experiment [1]; against c-Kit(V654A)) were 120 nM and 0.47 nM, respectively.
As to `COCCOc1cc2[nH]nc(-c3cc(-c4ccc(C(=O)N(C)C)cn4)no3)c2cc1F` [A91, 6-{5-[5-fluoro-6-(2-methoxyethoxy)-1H-indazol-3-yl]-1,2-oxazol-3-yl}-N,N-dimethylpyridine-3-carboxamide], the IC50 worked out at 290 nM in experiment [1] and 7.2 nM against c-Kit(V654A).
On to `COCCOc1cc2[nH]nc(-c3cc(-c4ncc(C(=O)N(C)C)s4)no3)c2cc1F` [A92, 2-{5-[5-fluoro-6-(2-methoxyethoxy)-1H-indazol-3-yl]-1,2-oxazol-3-yl}-N,N-dimethyl-1,3-thiazole-5-carboxamide], for which the IC50 in experiment [1] came out at 360 nM; on c-Kit(V654A), 55 nM.
Take `COCCOc1cc2[nH]nc(-c3cc(-c4nc(C(=O)N(C)C)cs4)no3)c2cc1F` [A93, 2-{5-[5-fluoro-6-(2-methoxyethoxy)-1H-indazol-3-yl]-1,2-oxazol-3-yl}-N,N-dimethyl-1,3-thiazole-4-carboxamide]: the IC50 in experiment [1] stood at 390 nM; on c-Kit(V654A), 53 nM.
For `COCCOc1cc2[nH]nc(-c3cc(-c4ccc(C(=O)N5CCC[C@@H]5CNS(C)(=O)=O)cc4)no3)c2cc1F` [A94, N-{[(2R)-1-(4-{5-[5-fluoro-6-(2-methoxyethoxy)-1H-indazol-3-yl]-1,2-oxazol-3-yl}benzoyl)pyrrolidin-2-yl]methyl}methanesulfonamide], in that order: 100 nM and 0.58 nM.
As for `COCCOc1cc2[nH]nc(-c3cc(-c4ccc(C(=O)N5CC[C@H]5CO)cc4)no3)c2cc1F` [A95, [(2S)-1-(4-{5-[5-fluoro-6-(2-methoxyethoxy)-1H-indazol-3-yl]-1,2-oxazol-3-yl}benzoyl)azetidin-2-yl]methanol], the IC50 was found to be 37 nM in experiment [1] and 0.91 nM at c-Kit(V654A).
Consider `COCCOc1cc2[nH]nc(-c3cc(-c4ccc(C(=O)N5CC(C#N)C5)nc4)no3)c2cc1F` [A96, 1-(5-{5-[5-fluoro-6-(2-methoxy-ethoxy)-1H-indazol-3-yl]-isoxazol-3-yl}-pyridine-2-carbonyl)-azetidine-3-carbonitrile], for which the IC50 in experiment [1] is 740 nM; against c-Kit(V654A) it was 21 nM.
`COCCOc1cc2[nH]nc(-c3cc(-c4ccc(C(=O)N5CC[C@@H]5CO)cc4)no3)c2cc1F` [A97, [(2R)-1-(4-{5-[5-fluoro-6-(2-methoxyethoxy)-1H-indazol-3-yl]-1,2-oxazol-3-yl}benzoyl)azetidin-2-yl]methanol]: the IC50 in experiment [1] came out at 41 nM; against c-Kit(V654A) it was 0.97 nM.
For the compound `COCCOc1cc2[nH]nc(-c3cc(-c4ccc(C(=O)N5CC(F)C5)nc4)no3)c2cc1F` [A98, (3-fluoro-azetidin-1-yl)-(5-{5-[5-fluoro-6-(2-methoxy-ethoxy)-1H-indazol-3-yl]-isoxazol-3-yl}-pyridin-2-yl)-methanone], the IC50 was determined as 860 nM in experiment [1] and 15 nM at c-Kit(V654A).
As to `COCCOc1cc2[nH]nc(-c3cc(-c4ccc(C(=O)N(C)C)nc4)no3)c2cc1F` [A99, 5-{5-[5-fluoro-6-(2-methoxy-ethoxy)-1H-indazol-3-yl]-isoxazol-3-yl}-pyridine-2-carboxylic acid dimethylamide], the IC50 is 670 nM in experiment [1] and 6.9 nM at c-Kit(V654A).
For `COCCOc1cc2[nH]nc(-c3cc(-c4ccc(C(=O)N5CC[C@@H](F)C5)nc4)no3)c2cc1F` [A100, 5-fluoro-3-(3-{6-[(3R)-3-fluoropyrrolidine-1-carbonyl]pyridin-3-yl}-1,2-oxazol-5-yl)-6-(2-methoxyethoxy)-1H-indazole], in that order: 340 nM and 5.7 nM.
With `COCCOc1cc2[nH]nc(-c3cc(-c4ccc(C(=O)N5CC(N6CC(F)C6)C5)cc4)no3)c2cc1F` [A101, 5-fluoro-3-[3-(4-{3-fluoro-[1,3′-biazetidine]-1′-carbonyl}phenyl)-1,2-oxazol-5-yl]-6-(2-methoxyethoxy)-1H-indazole], the IC50 in experiment [1] worked out at 160 nM; against c-Kit(V654A) it was 0.94 nM.
Take `COCCOc1cc2[nH]nc(-c3cc(-c4ccc(C(=O)N5CC(N6CCN(C)CC6)C5)cc4)no3)c2cc1F` [A102, 5-fluoro-6-(2-methoxyethoxy)-3-(3-{4-[3-(4-methylpiperazin-1-yl)azetidine-1-carbonyl]phenyl}-1,2-oxazol-5-yl)-1H-indazole]: the IC50 in experiment [1] amounted to 160 nM; on c-Kit(V654A) it was 1.3 nM.
Take `COCCOc1cc2[nH]nc(-c3cc(-c4ccc(C(=O)N5CC(N6CCC(O)CC6)C5)cc4)no3)c2cc1F` [A103, 1-[1-(4-{5-[5-fluoro-6-(2-methoxyethoxy)-1H-indazol-3-yl]-1,2-oxazol-3-yl}benzoyl)azetidin-3-yl]piperidin-4-ol]: the results for the IC50 (in experiment [1]; on c-Kit(V654A)) were 140 nM and 0.96 nM, respectively.
Consider `COCCOc1cc2[nH]nc(-c3cc(-c4ccc(C(=O)N5CCOCC5)cc4)no3)c2cc1F` [A104, 5-fluoro-6-(2-methoxyethoxy)-3-{3-[4-(morpholine-4-carbonyl)phenyl]-1,2-oxazol-5-yl}-1H-indazole], for which the IC50 in experiment [1] was determined as 58 nM; against c-Kit(V654A), 0.79 nM.
For `COCCOc1cc2[nH]nc(-c3cc(-c4ccc(C(=O)N5CCOC[C@H]5CO)cc4)no3)c2cc1F` [A105, [(3R)-4-(4-{5-[5-fluoro-6-(2-methoxyethoxy)-1H-indazol-3-yl]-1,2-oxazol-3-yl}benzoyl)morpholin-3-yl]methanol], in that order: 140 nM and 1.2 nM.
As for `COCCOc1cc2[nH]nc(-c3cc(-c4ccc(C(=O)N5CCOC[C@@H]5CO)cc4)no3)c2cc1F` [A106, [(3S)-4-(4-{5-[5-fluoro-6-(2-methoxyethoxy)-1H-indazol-3-yl]-1,2-oxazol-3-yl}benzoyl)morpholin-3-yl]methanol], the IC50 in experiment [1] was determined as 77 nM; on c-Kit(V654A), 0.7 nM.
